Experimental data: patent publication US20230270826A1, “ANTIVIRAL USE OF L[…] GEFITINIB” (priority 2020, published 2023)

Columns and labels:
interleukin 6 (IL-6) = assay: Cytokine release assay (IL-6) in PBMC stimulated with SARS-CoV2 proteins; type: cell-based, human
[1] = tested on: genes from the COVID-19 model; assay: Transcription fingerprinting by 3' RNA-sequencing of nucleocapsid-stimulated cells; type: cell-based, human
[2] = compound effect vs nucleocapsid stimulation

| SMILES | Immune modulation of interleukin 6 (IL-6) release (interleukin 6 (IL-6); nucleocapsid (N) stimulation vs Mock, FIG. 1) | Expression of genes up- or down-regulated 2-fold by nucleocapsid (N) vs Mock ([1]; N+compound vs N, FIG. 4) | Regulation of genes up-regulated at time 4 h N vs Mock ([1]; N-compound vs N, 4 h, FIG. 4 boxplots) | Regulation of genes downregulated in nucleocapsid (N) stimulation vs Mock [1, 2] | Regulation of genes upregulated in nucleocapsid (N) stimulation vs Mock [1, 2] | Immune modulation of interleukin 6 (IL-6) release (interleukin 6 (IL-6); spike (S) or spike trimer (St) stimulation vs Mock, GEF 0.5 μM and 5 μM, POM 100 ng/ml, FIG. 3) |
| --- | --- | --- | --- | --- | --- | --- |
| COc1cc2ncnc(Nc3ccc(F)c(Cl)c3)c2cc1OCCCN1CCOCC1 [gefitinib] | stronger than by dexamethasone (DEX) alone | “normalized” in their expression | strongly down-regulated | upregulated | downregulated |  |
| Nc1cccc2c1C(=O)N(C1CCC(=O)NC1=O)C2=O (stereo not drawn) [pomalidomide] |  |  |  |  |  | does not show immune modulation |
